Structures can show the parent of a compound that is named as a salt.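 Compound exposure: 48 hours, 5 concentrations, 96-well plates. GI50 = concentration required for 50% inhibition of growth.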 Activity calls are given as the source filed them. Cut-off read from the data, not from the text of the source: active = GI50 up to about 1.1 µM and inactive = higher.
Key:
Assay in all cases: NCI-60 cell line screen, 48 h
[1] = tested on: HOP-62
[2] = tested on: 786-0
[3] = tested on: HCT-116
[4] = tested on: DU-145
[5] = tested on: SK-OV-3
[6] = tested on: SK-MEL-5
[7] = tested on: MDA-MB-231
[8] = tested on: SR
[9] = tested on: HL-60
[10] = tested on: OVCAR-4
[11] = tested on: MDA-MB-435
[12] = tested on: ACHN
[13] = tested on: HCT-15
[14] = tested on: A549
[15] = tested on: LOX IMVI
[16] = tested on: OVCAR-5
[17] = tested on: KM12
[18] = tested on: SNB-19
[19] = tested on: T47D

Compound | GI50 [1] | GI50 [2] | GI50 [3] | GI50 [4] | GI50 [5] | GI50 [6] | GI50 [7] | GI50 [8] | GI50 [9] | GI50 [10] | GI50 [11] | GI50 [12] | GI50 [13] | GI50 [14] | GI50 [15] | GI50 [16] | GI50 [17] | GI50 [18] | GI50 [19]
COn1cc(C=O)c2ccccc21 | 81.3 µM (inactive) | > 67 µM (inactive) | > 59 µM (inactive) | > 82 µM (inactive) | 67 µM (inactive) | 28.1 µM (inactive) | > 100 µM (inactive) | 26.4 µM (inactive) | 0.551 µM (active) | > 50.5 µM (inactive) | 10.8 µM (inactive) | 32.7 µM (inactive) | > 70.5 µM | > 67 µM (inactive) | > 65.2 µM (inactive) | > 74.6 µM (inactive) | 23.9 µM (inactive) | 69.7 µM (inactive) | 65.8 µM (inactive)
COc1ccc(-c2cc(-c3ccc(Nc4ccnc5cc(C(F)(F)F)ccc45)cc3)[nH]c(=O)c2C#N)c2ccccc12 | 11.2 µM (inactive) | 21 µM (inactive) | 17.5 µM (inactive) | > 43.8 µM (inactive) | 10.2 µM (inactive) | > 100 µM (inactive) | 17.7 µM (inactive) | 12.6 µM (inactive) | > 100 µM (inactive) | > 46 µM (inactive) | > 33.7 µM (inactive) | > 32.5 µM (inactive) | > 100 µM | > 100 µM (inactive) | 24.2 µM (inactive) | > 61.2 µM (inactive) | > 30.4 µM (inactive) | 18.8 µM (inactive) | > 34 µM (inactive)
NN=C(CC(O)(C(F)(F)Cl)C(F)(F)Cl)CC(O)(C(F)(F)Cl)C(F)(F)Cl | > 10 µM (inactive) | > 10 µM (inactive) | > 10 µM (inactive) | > 10 µM (inactive) | > 10 µM (inactive) | > 10 µM (inactive) | > 10 µM (inactive) | > 10 µM (inactive) | > 10 µM (inactive) | > 10 µM (inactive) | > 10 µM (inactive) | > 10 µM (inactive) | > 10 µM | > 10 µM (inactive) | > 10 µM (inactive) | > 10 µM (inactive) | > 10 µM (inactive) | > 10 µM (inactive) | > 10 µM (inactive)
CC(=N\N=C\c1ccccn1)/C(C)=N/N=C(C)/C(C)=N/N=C/c1ccccn1 | > 100 µM (inactive) | > 100 µM (inactive) | > 100 µM (inactive) | > 100 µM (inactive) | > 100 µM (inactive) | > 100 µM (inactive) | > 100 µM (inactive) | > 100 µM (inactive) | > 100 µM (inactive) | > 100 µM (inactive) | > 100 µM (inactive) | > 100 µM (inactive) | 71.3 µM | > 100 µM (inactive) | > 100 µM (inactive) | > 100 µM (inactive) | > 100 µM (inactive) | > 100 µM (inactive) | > 100 µM (inactive)
CCOC(=O)/C=C1\Nc2ccccc2C12CCc1c([nH]c3ccccc13)C2C(=O)OCC (stereo not given) | > 100 µM (inactive) | 57.8 µM (inactive) | 17.6 µM (inactive) | 98.2 µM (inactive) | 30.2 µM (inactive) | 21.8 µM (inactive) | 18 µM (inactive) | 25.8 µM (inactive) | 26.1 µM (inactive) | 16.3 µM (inactive) | 6.27 µM (inactive) | 49.2 µM (inactive) | 46.5 µM | 29.7 µM (inactive) | 39.2 µM (inactive) | > 100 µM (inactive) | 20.5 µM (inactive) | > 100 µM (inactive) | 61.2 µM (inactive)
CC(=O)O[C@H]1CC[C@@]2(C)C(=CC[C@@H]3[C@@H]2CC[C@]2(C)c4nc(Cl)ccc4C[C@@H]32)C1 | 45.4 µM (inactive) | 32 µM (inactive) | 32.6 µM (inactive) | 80.4 µM (inactive) | > 100 µM (inactive) | 30.8 µM (inactive) | > 100 µM (inactive) | 37 µM (inactive) | 33.8 µM (inactive) | 38.8 µM (inactive) | 41.4 µM (inactive) | 33.7 µM (inactive) | 40 µM | 52 µM (inactive) | 40.9 µM (inactive) | 38.1 µM (inactive) | 43.3 µM (inactive) | 93.8 µM (inactive) | 44.6 µM (inactive)
CC1(C)C(=O)/C(=C/c2ccccc2)C(C)(C)C1(C)C | 40.9 µM (inactive) | > 81.8 µM (inactive) | 38.5 µM (inactive) | 40.7 µM (inactive) | > 55.5 µM (inactive) | 55 µM (inactive) | > 93.8 µM (inactive) | 37 µM (inactive) | 18.9 µM (inactive) | > 75.3 µM (inactive) | 29.4 µM (inactive) | 53.3 µM (inactive) | 54.1 µM | 57.5 µM (inactive) | 35.4 µM (inactive) | > 100 µM (inactive) | 49.9 µM (inactive) | > 100 µM (inactive) | > 65.3 µM (inactive)
CN1[C@@H]2CC[C@H]1C[C@@H](OC(c1ccccc1)c1ccccc1)C2 [BENZTROPINE MESYLATE] | 15.6 µM (inactive) | 14 µM (inactive) | 12.6 µM (inactive) | 26.9 µM (inactive) | 17.9 µM (inactive) | 15.6 µM (inactive) | 17.5 µM (inactive) | 19.5 µM (inactive) | 18.2 µM (inactive) | 25.5 µM (inactive) | 13.9 µM (inactive) | 19.7 µM (inactive) | 22.5 µM | 16.9 µM (inactive) | 16 µM (inactive) | 18.4 µM (inactive) | 17.2 µM (inactive) | 22 µM (inactive) | 17.3 µM (inactive)
O=C(NCCCCCN1CCC2(CCCCC2)CC1)C(C1CCCCC1)C1CCCCC1 | 1.85 µM (inactive) | 5.08 µM (inactive) | 4.44 µM (inactive) | 4.6 µM (inactive) | 5.15 µM (inactive) | 1.61 µM (inactive) | 5.11 µM (inactive) | 1.57 µM (inactive) | 1.56 µM (inactive) | 3.59 µM (inactive) | 1.85 µM (inactive) | 3.67 µM (inactive) | 3.08 µM | 5.94 µM (inactive) | 2.7 µM (inactive) | 6.22 µM (inactive) | 6.11 µM (inactive) | 5.73 µM (inactive) | 2.51 µM (inactive)
O=C(NCP(=O)(c1ccccc1)c1ccccc1)OCc1ccccc1 | 27.4 µM (inactive) | 37.2 µM (inactive) | > 100 µM (inactive) | > 100 µM (inactive) | 67.3 µM (inactive) | > 100 µM (inactive) | 60.1 µM (inactive) | > 100 µM (inactive) | > 100 µM (inactive) | 43.5 µM (inactive) | > 100 µM (inactive) | > 100 µM (inactive) | > 100 µM | 66.8 µM (inactive) | > 100 µM (inactive) | > 100 µM (inactive) | > 100 µM (inactive) | > 100 µM (inactive) | > 100 µM (inactive)
CC(=O)Oc1ccc2c3c1O[C@H]1[C@H](O)CC[C@@]4(O)[C@@H](C2)N(C)CC[C@]314 | > 100 µM (inactive) | > 100 µM (inactive) | > 100 µM (inactive) | > 100 µM (inactive) | > 100 µM (inactive) | > 100 µM (inactive) | > 100 µM (inactive) | > 100 µM (inactive) | > 100 µM (inactive) | > 100 µM (inactive) | > 100 µM (inactive) | > 100 µM (inactive) | > 100 µM | > 100 µM (inactive) | > 100 µM (inactive) | > 100 µM (inactive) | > 100 µM (inactive) | > 100 µM (inactive) | > 100 µM (inactive)
c1ccc2c(-c3ccnc(-c4c[nH]c5ccccc45)n3)c[nH]c2c1 | 10.4 µM (inactive) | 2.12 µM (inactive) | 4.36 µM (inactive) | 12.4 µM (inactive) | 10.7 µM (inactive) | 3.27 µM (inactive) | 1.85 µM (inactive) | 4.25 µM (inactive) | 2.29 µM (inactive) | 8.69 µM (inactive) | 4.52 µM (inactive) | 3.13 µM (inactive) | 3.19 µM | 3.27 µM (inactive) | 2.82 µM (inactive) | > 100 µM (inactive) | 3.94 µM (inactive) | 4.81 µM (inactive) | 3.85 µM (inactive)
C=CCOCn1cnc2c(=O)[nH]c(N)nc21 | > 100 µM (inactive) | > 100 µM (inactive) | > 100 µM (inactive) | > 100 µM (inactive) | > 100 µM (inactive) | > 100 µM (inactive) | > 100 µM (inactive) | > 100 µM (inactive) | > 100 µM (inactive) | > 100 µM (inactive) | > 100 µM (inactive) | > 100 µM (inactive) | > 100 µM | > 100 µM (inactive) | > 100 µM (inactive) | > 100 µM (inactive) | > 100 µM (inactive) | > 100 µM (inactive) | > 100 µM (inactive)
NCC(=O)Nc1ccc(S(=O)(=O)O)c2cc(S(=O)(=O)O)cc(S(=O)(=O)O)c12 | > 100 µM (inactive) | > 100 µM (inactive) | > 100 µM (inactive) | > 100 µM (inactive) | > 100 µM (inactive) | > 100 µM (inactive) | > 100 µM (inactive) | > 100 µM (inactive) | > 100 µM (inactive) | > 100 µM (inactive) | > 100 µM (inactive) | > 100 µM (inactive) | > 100 µM | > 100 µM (inactive) | > 100 µM (inactive) | > 100 µM (inactive) | > 100 µM (inactive) | > 100 µM (inactive) | > 100 µM (inactive)
Cc1c(C)c(S(=O)(=O)N(CCCCCON)OCCCN)c(C)c2c1OC(C)(C)CC2 | 16 µM (inactive) | 16.7 µM (inactive) | 14.8 µM (inactive) | 0.883 µM (active) | 14.5 µM (inactive) | 15.9 µM (inactive) | 15.7 µM (inactive) | 2.71 µM (inactive) | 5.74 µM (inactive) | 7.5 µM (inactive) | 11.8 µM (inactive) | 16.4 µM (inactive) | 15.2 µM | 13.4 µM (inactive) | 9.73 µM (inactive) | 14.9 µM (inactive) | 13.9 µM (inactive) | 15.5 µM (inactive) | 5 µM (inactive)
